# Measured values taken from PubChem BioAssay (NCI).
#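 1) Cells in 96-well plates. 2) Compound, 48 h, 5 concentrations. 3) Linear interpolation between surrounding doses. 4) Unreached endpoint = highest concentration. The concentration for full growth arrest is given as TGI.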
# Columns and labels:
# Experiment in all cases: NCI anticancer screen, dose series, 48 h
# [1] = tested on: 786-0 renal
# [2] = tested on: HOP-92 NSCLC
# [3] = tested on: HL-60(TB) leukemia
# [4] = tested on: UACC-257 melanoma
# [5] = tested on: A498 renal
# [6] = tested on: U251 CNS
# [7] = tested on: SNB-19 CNS
# [8] = tested on: SK-MEL-5 melanoma
# [9] = tested on: CCRF-CEM leukemia
# [10] = tested on: SW-620 colon
# [11] = tested on: SR leukemia
# [12] = tested on: OVCAR-5 ovarian
# [13] = tested on: TK-10 renal
# [14] = tested on: HCT-15 colon
# [15] = tested on: RPMI-8226 leukemia
# [16] = tested on: HCC-2998 colon
# [17] = tested on: T-47D breast
# [18] = tested on: NCI-H522 lung
# [19] = tested on: BT-549 breast
# [20] = tested on: MALME-3M melanoma
# [21] = tested on: CAKI-1 renal
# [22] = tested on: SN12C renal
# [23] = tested on: SK-OV-3 ovarian
# [24] = tested on: OVCAR-8 ovarian
# [25] = tested on: OVCAR-4 ovarian
# [26] = tested on: COLO 205 colon
# [27] = tested on: DU-145 prostate
# [28] = tested on: SK-MEL-2 melanoma
# [29] = tested on: NCI/ADR-RES ovarian
# [30] = tested on: RXF 393 renal
# [31] = tested on: SK-MEL-28 melanoma
# [32] = tested on: MOLT-4 leukemia
# [33] = tested on: UACC-62 melanoma
# [34] = tested on: NCI-H226 lung
# [35] = tested on: SF-268 CNS
# [36] = tested on: M14 melanoma
# [37] = tested on: SF-295 CNS
# [38] = tested on: IGROV1 ovarian
# [39] = tested on: NCI-H460 lung
# [40] = tested on: SNB-75 CNS
# [41] = tested on: PC-3 prostate
# [42] = tested on: MDA-MB-435
# [43] = tested on: OVCAR-3 ovarian
# [44] = tested on: LOX IMVI melanoma
# [45] = tested on: MDA-MB-231 breast
# [46] = tested on: A549 NSCLC
# [47] = tested on: HOP-62 NSCLC
# [48] = tested on: HT29 colon
# [49] = tested on: ACHN renal
# [50] = tested on: MCF7 breast
# [51] = tested on: KM12 colon
# [52] = tested on: HCT-116 colon
# [53] = tested on: UO-31 renal
# [54] = tested on: HS 578T breast
# [55] = tested on: SF-539 CNS
# [56] = tested on: EKVX NSCLC
# [57] = tested on: MDA-N
# [58] = tested on: NCI-H23 lung
# [59] = tested on: K-562 leukemia
structure (smiles),measurement,setting,value
CC(C)[Si]1(C(C)C)OCC2OC(n3ccc(=O)[nH]c3=O)C([Se]c3ccccc3)C2O[Si](C(C)C)(C(C)C)O1 (configuration not stated),TGI,[1],7.77 µM
same,TGI,[2],13 µM
same,TGI,[3],> 25.4 µM
same,TGI,[4],13.9 µM
same,TGI,[5],18.9 µM
same,TGI,[6],4.87 µM
same,TGI,[7],0.677 µM
same,TGI,[8],9.59 µM
same,TGI,[9],> 24.4 µM
same,TGI,[10],6.62 µM
same,TGI,[11],27.1 µM
same,TGI,[12],22.8 µM
same,TGI,[13],19.9 µM
same,TGI,[14],16.3 µM
same,TGI,[15],10.9 µM
same,TGI,[16],3 µM
same,TGI,[17],19.9 µM
same,TGI,[18],4.36 µM
same,TGI,[19],23.7 µM
same,TGI,[20],8.93 µM
same,TGI,[21],24.3 µM
same,TGI,[22],5.57 µM
same,TGI,[23],31.2 µM
same,TGI,[24],10.7 µM
same,TGI,[25],9.67 µM
same,TGI,[26],16.6 µM
same,TGI,[27],24.7 µM
same,TGI,[28],20.1 µM
same,TGI,[29],26.7 µM
same,TGI,[30],9.65 µM
same,TGI,[31],12.5 µM
same,TGI,[32],> 22.9 µM
same,TGI,[33],14.8 µM
same,TGI,[34],3.88 µM
same,TGI,[35],10.3 µM
same,TGI,[36],21.8 µM
same,TGI,[37],18 µM
same,TGI,[38],9.49 µM
same,TGI,[39],3.89 µM
same,TGI,[40],2.42 µM
same,TGI,[41],11.9 µM
same,TGI,[42],17.3 µM
same,TGI,[43],9.73 µM
same,TGI,[44],2.45 µM
same,TGI,[45],7.79 µM
same,TGI,[46],22.1 µM
same,TGI,[47],25.2 µM
same,TGI,[48],3.99 µM
same,TGI,[49],6.59 µM
same,TGI,[50],8.27 µM
same,TGI,[51],6.62 µM
same,TGI,[52],7.16 µM
same,TGI,[53],21.5 µM
same,TGI,[54],5.46 µM
same,TGI,[55],20.7 µM
same,TGI,[56],17.5 µM
same,TGI,[57],12.7 µM
same,TGI,[58],13 µM
CC(C)[C@H]1NC(=O)[C@H]2N=C(S[C@H]2C)[C@@H]2CCCN2C(=O)[C@H](Cc2ccccc2)NC(=O)[C@@H]2CSC(=N2)[C@@H](Cc2ccccc2)NC(=O)[C@@H]2CSC1=N2,TGI,[1],> 50 µM
same,TGI,[3],16.3 µM
same,TGI,[4],> 50 µM
same,TGI,[5],41.7 µM
same,TGI,[6],> 50 µM
same,TGI,[7],> 50 µM
same,TGI,[8],> 50 µM
same,TGI,[9],46.4 µM
same,TGI,[10],> 50 µM
same,TGI,[11],19.7 µM
same,TGI,[12],> 50 µM
same,TGI,[13],> 50 µM
same,TGI,[14],> 50 µM
same,TGI,[15],19.8 µM
same,TGI,[16],28.2 µM
same,TGI,[17],> 50 µM
same,TGI,[18],45 µM
same,TGI,[19],> 50 µM
same,TGI,[20],> 50 µM
same,TGI,[21],> 50 µM
same,TGI,[22],> 50 µM
same,TGI,[23],> 50 µM
same,TGI,[24],> 50 µM
same,TGI,[25],> 50 µM
same,TGI,[26],> 50 µM
same,TGI,[27],> 50 µM
same,TGI,[28],> 50 µM
same,TGI,[29],> 50 µM
same,TGI,[30],> 50 µM
same,TGI,[31],> 50 µM
same,TGI,[32],29.5 µM
same,TGI,[33],> 50 µM
same,TGI,[34],> 50 µM
same,TGI,[35],> 50 µM
same,TGI,[36],> 50 µM
same,TGI,[37],> 50 µM
same,TGI,[38],> 50 µM
same,TGI,[41],> 50 µM
same,TGI,[42],> 50 µM
same,TGI,[43],> 50 µM
same,TGI,[44],> 50 µM
same,TGI,[45],> 50 µM
same,TGI,[46],> 50 µM
same,TGI,[47],> 50 µM
same,TGI,[48],> 50 µM
same,TGI,[49],> 50 µM
same,TGI,[50],> 50 µM
same,TGI,[51],> 50 µM
same,TGI,[52],> 50 µM
same,TGI,[53],> 50 µM
same,TGI,[54],47 µM
same,TGI,[55],> 50 µM
same,TGI,[56],> 50 µM
same,TGI,[57],> 50 µM
same,TGI,[58],> 50 µM
same,TGI,[59],23.9 µM
COC(=O)c1c(O)ccc2c1c1c(n2Cc2cc(OC)cc(OC)c2)C(=O)c2ccccc2C1=O,TGI,[1],21.4 µM
same,TGI,[2],24.6 µM
same,TGI,[3],39.4 µM
same,TGI,[4],> 100 µM
same,TGI,[5],> 100 µM
same,TGI,[6],28.2 µM
same,TGI,[7],> 100 µM
same,TGI,[8],26.7 µM
same,TGI,[9],78.6 µM
same,TGI,[10],> 100 µM
same,TGI,[11],> 100 µM
same,TGI,[12],55.9 µM
same,TGI,[13],41.1 µM
same,TGI,[14],21.1 µM
same,TGI,[15],9.98 µM
same,TGI,[16],5.73 µM
same,TGI,[17],50.5 µM
same,TGI,[18],20.9 µM
same,TGI,[19],29 µM
same,TGI,[20],22.4 µM
same,TGI,[21],56.7 µM
same,TGI,[22],24.2 µM
same,TGI,[23],37.5 µM
same,TGI,[24],90.3 µM
same,TGI,[25],50.7 µM
same,TGI,[26],3.28 µM
same,TGI,[27],71.9 µM
same,TGI,[28],27.2 µM
same,TGI,[29],21.8 µM
same,TGI,[30],45.6 µM
same,TGI,[31],33 µM
same,TGI,[32],73.3 µM
same,TGI,[34],39.3 µM
same,TGI,[35],41.2 µM
same,TGI,[36],26.2 µM
same,TGI,[37],32.7 µM
same,TGI,[38],22 µM
same,TGI,[39],19 µM
same,TGI,[40],58.7 µM
same,TGI,[41],19.3 µM
same,TGI,[42],12.9 µM
same,TGI,[43],25 µM
same,TGI,[44],63.5 µM
same,TGI,[45],35.7 µM
same,TGI,[46],31.3 µM
same,TGI,[47],23 µM
same,TGI,[48],5.42 µM
same,TGI,[49],56.1 µM
same,TGI,[50],45.3 µM
same,TGI,[51],13.6 µM
same,TGI,[52],15.1 µM
same,TGI,[53],40.5 µM
same,TGI,[54],45.9 µM
same,TGI,[55],25.9 µM
same,TGI,[56],51.5 µM
same,TGI,[57],34.3 µM
same,TGI,[58],27 µM
same,TGI,[59],> 100 µM
